Data: US20240358025A1, “INSECT, BACTERIAL, AND/OR FUNGAL CONTROL COMPOSITION” (priority 2021, published 2024)

How the values were obtained:
[1] = tested on: Pseudomonas aeruginosa ATCC 9027; assay: Inhibition assay of essential oils and pairings in base solution, log reduction and synergy; type: cell-based; settings: pairing Clove + Geraniol; log reduction of pairing divided by that of the pure oil named
[2] = tested on: Candida albicans ATCC 10231; assay: as above; type: cell-based; settings: log reduction of pairing divided by that of the pure oil named
Escherichia coli = assay: E. coli growth inhibition by individual components and combinations (CFU count); type: cell-based; settings: for CFUs / CFUs/mL: CFU after 24 hours; for reduction of growth of E. coli (in words): component alone
Description: (§1) Escherichia coli was grown in the presence of each component or combinations to determine the inhibitory potential. […] The appropriate amount of each component was added to 5 mL of LB media, and each culture was inoculated with 50 μL of a 12 hour old culture of E. coli. The cultures were grown for 12 hours at 37° C. with shaking at 225 rpm before being serial diluted and plated onto solid LB agar plates (5 μL per plate) in triplicate. Plates were incubated for 24 hours at 37° C., and then colonies were counted to determine the inhibitory potential.

Banded crickets [3] = assay: Residual insecticides against banded crickets (surfaces aged 7 DAT); type: in vivo; settings: 0.75 gallons per acre
Description: Post-Treatment Arenas: 20 oz. […] A potato cutting was added as a food source. Clean post-treatment arenas were used to contain the test systems after exposure to the test substances.
(§2) The test substances were shaken and then mixed at a rate of 5.324 mL of concentrate per 200 ml of water.
The diluted test substances were adequately shaken prior to applications. A track spraying jig was used to make a linear application. […] This equated to a treatment rate of 0.75 gallons per acre.

Banded crickets [4] = assay: Direct spray insecticides against banded crickets; type: in vivo; settings: 0.75 gallons per acre
Description: The Test Arenas were used to contain the test systems during the test substance applications.
Post-Treatment Arenas: 20 oz. SOLO cups with mesh lids were used as post-treatment arenas. A potato cutting was added as a food source. Clean post-treatment arenas were used to contain the test systems after exposure to the test substances.
Application Equipment: A compressed air sprayer with a flat fan nozzle, pressurized to 20 PSI was used to make applications.
as §2
The diluted test substances were adequately shaken prior to applications. A track spraying jig was used to make a linear application. A single cartridge containing 10 test systems was placed in the middle of the spray path. […] This equated to a treatment rate of 0.75 gallons per acre.
The observations were made by raising the test arenas and gently blowing air on the test systems to provoke movement, lightly prodding the test systems, or the test arenas were shaken/agitated to provoke test system movement.
The test systems were transferred from the Treatment Arenas into the clean Post-Treatment Arenas 1 hour after the applications.

E. coli = E. coli growth inhibition, essential oil comparison in the non-essential oil fraction (CFU count); type: cell-based, Escherichia coli; settings: oils in non-essential oil fraction
Description: as §1
Combinations of essential oils, each at the concentration indicated in Example 1, were assayed for their inhibitory potential in a similar manner as Example 1.
The essential oils were then tested in the non-essential oil fraction for synergy. […] Also, there was increasing antimicrobial action of the essential oils related to the combination of the oils leading to the highest activity found in the Essential Oil-Ark product.

CC(C)=CCC/C(C)=C/CO [Geraniol]
Synergistic advantage [1]: 106.3% | Synergistic advantage ([2]; pairing Geraniol + Garlic): 120.9% | Synergistic advantage ([2]; pairing Geraniol + Peppermint): 103.9% | Synergistic advantage ([2]; pairing Geraniol + Rosemary): 103.9% | Synergistic advantage ([2]; pairing Geraniol + Thyme): 103.9% | CFUs (Escherichia coli): 2 CFUs | CFUs/mL (Escherichia coli): 40 CFUs/mL | Average Percent Mortality (Banded crickets [3]; surface aged 7 DAT, 3 DAT): 10% | efficacy as a residual insecticide (in words) (Banded crickets [3]; up to 7 days after treatment): did not provide high levels of mortality | efficacy as a direct kill insecticide (in words) (Banded crickets [4]): did not provide high levels of mortality | Average Percent Mortality (Banded crickets [4]; 2 DAT): 33% | Avg (E. coli; CFU after 24 hours): 43.333 | CFUs (E. coli; CFU after 24 hours): 43333 CFUs | CFUs/mL (E. coli; CFU after 24 hours): 866660 CFUs/mL | antimicrobial activity (in words) (E. coli): highest activity of the essential oils

CCCCCCCCCCCCCCCCCC(=O)OCC(O)CO (stereo not drawn) [Glyceryl Monostearate]
CFUs (Escherichia coli): 8330000 CFUs | CFUs/mL (Escherichia coli): 166600000 CFUs/mL | reduction of growth of E. coli (in words) (Escherichia coli): did not substantially reduce growth of E. coli

C/C=C/C=C/C(=O)[O-].[K+] [Potassium Sorbate]
CFUs (Escherichia coli): 13000000 CFUs | CFUs/mL (Escherichia coli): 260000000 CFUs/mL | reduction of growth of E. coli (in words) (Escherichia coli): did not substantially reduce growth of E. coli
